Source: patent US10670605B2, “Cysteine reactive probes and uses thereof” (The Scripps Research Institute, priority 2015, dated 2020)

Experiments:
Assay in all cases: Competitive isoTOP-ABPP, cell lysates;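 on isoTOP-ABPP reactivity profile ratio, P09211 C48: Heavy/light ratio DMSO over fragment-treated so higher means more cysteine engagement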;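 on isoTOP-ABPP reactivity profile ratio, P63244 C182: Heavy/light ratio DMSO over fragment-treated so higher means more cysteine engagement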
Format in all cases: binding
GNB2L1 C182 (P63244) = GNB2L1 C182 (P63244) (Homo sapiens, UniProt P63244); conditions: for isoTOP-ABPP reactivity profile ratio, P63244_C182: 500 μm;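 on isoTOP-ABPP reactivity profile ratio, P63244 C182: Heavy/light ratio DMSO over fragment-treated so higher means more cysteine engagement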
GSTP1 C48 (P09211) = GSTP1 C48 (P09211) (Homo sapiens, UniProt P09211); conditions: for isoTOP-ABPP reactivity ratio, P09211_C48 / isoTOP-ABPP reactivity profile ratio, P09211_C48: 500 μm;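 on isoTOP-ABPP reactivity profile ratio, P09211 C48: Heavy/light ratio DMSO over fragment-treated so higher means more cysteine engagement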
PDIA6 C190 (Q15084) = molecular target: T1, PDIA6 C190 (Q15084) (Homo sapiens, UniProt Q15084)
T1 sequence (Q15084 20-440): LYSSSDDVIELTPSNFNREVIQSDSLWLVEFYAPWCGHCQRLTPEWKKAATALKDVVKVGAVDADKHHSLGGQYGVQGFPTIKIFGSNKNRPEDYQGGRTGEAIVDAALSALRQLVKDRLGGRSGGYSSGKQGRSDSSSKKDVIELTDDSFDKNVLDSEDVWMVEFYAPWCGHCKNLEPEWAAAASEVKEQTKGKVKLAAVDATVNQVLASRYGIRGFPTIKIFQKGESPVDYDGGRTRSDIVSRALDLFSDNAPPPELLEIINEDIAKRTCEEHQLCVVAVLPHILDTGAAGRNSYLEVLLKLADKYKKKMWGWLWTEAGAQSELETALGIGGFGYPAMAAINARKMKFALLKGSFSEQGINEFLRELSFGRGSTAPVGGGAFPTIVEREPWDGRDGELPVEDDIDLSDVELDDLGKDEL

STAT3 C259 (P40763) = STAT3 C259 (P40763) (Homo sapiens, UniProt P40763)
UBE2L3 C86 (P68036) = UBE2L3 C86 (P68036) (Homo sapiens, UniProt P68036); conditions: for isoTOP-ABPP reactivity profile ratio, P68036_C86: 500 μm
XPO1 C34 (O14980) = XPO1 C34 (O14980) (Homo sapiens, UniProt O14980); conditions: for isoTOP-ABPP reactivity ratio, O14980_C34 / isoTOP-ABPP reactivity profile ratio, O14980_C34: 500 μm
XPO1 C528 (O14980) = XPO1 C528 (O14980) (Homo sapiens, UniProt O14980)
SMARCC2 C145 (Q8TAQ2) = SMARCC2 C145 (Q8TAQ2) (Homo sapiens, UniProt Q8TAQ2); conditions: for isoTOP-ABPP reactivity profile ratio, Q8TAQ2_C145: 500 μm
MGMT C150 (P16455) = molecular target: T2, MGMT C150 (P16455) (Homo sapiens, UniProt P16455); conditions: 500 μm, in-vitro_ramos
T2 sequence (P16455 1-207): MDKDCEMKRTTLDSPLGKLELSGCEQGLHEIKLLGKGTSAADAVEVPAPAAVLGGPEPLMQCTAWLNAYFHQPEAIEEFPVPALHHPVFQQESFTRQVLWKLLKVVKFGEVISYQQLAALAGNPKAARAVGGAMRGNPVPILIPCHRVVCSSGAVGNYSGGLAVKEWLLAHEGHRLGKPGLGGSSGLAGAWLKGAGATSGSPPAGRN

DCUN1D1 C115 (Q96GG9) = DCUN1D1 C115 (Q96GG9) (Homo sapiens, UniProt Q96GG9); conditions: 500 μm, in-vitro_ramos

CNS(=O)(=O)C=Cc1ccc2c(ccn2Cc2ccccc2)c1 [compound 6]
isoTOP-ABPP ratio, P63244_C182 (GNB2L1 C182 (P63244); 500 μM, invitro, 231): 1.5 | isoTOP-ABPP ratio, P09211_C48 (GSTP1 C48 (P09211); 500 μM, invitro, 231): 1.2 | isoTOP-ABPP ratio, Q15084_C190 (PDIA6 C190 (Q15084); 500 μM, invitro, 231): 1.1 | isoTOP-ABPP ratio, P40763_C259 (STAT3 C259 (P40763); 500 μM, invitro, 231): 0.6 | isoTOP-ABPP ratio, P68036_C86 (UBE2L3 C86 (P68036); 500 μM, invitro, 231): 1.8 | isoTOP-ABPP ratio, O14980_C34 (XPO1 C34 (O14980); 500 μM, invitro, 231): 1.2 | isoTOP-ABPP ratio O14980_C528 (XPO1 C528 (O14980); 500 μM, invitro, 231): 0.7

CC(Cl)C(=O)Nc1cc(C(F)(F)F)cc(C(F)(F)F)c1 (stereo not drawn) [compound 25]
isoTOP-ABPP ratio (reactivity profile), P63244_C182 (GNB2L1 C182 (P63244); 500 μm in-vitro ramos_231): 1.2 | isoTOP-ABPP ratio (reactivity profile), P09211_C48 (GSTP1 C48 (P09211); 500 μm in-vitro ramos_231): 1.8 | isoTOP-ABPP ratio (reactivity profile), Q15084_C190 (PDIA6 C190 (Q15084); 500 μm in-vitro ramos_231): 1.0 | isoTOP-ABPP ratio (reactivity profile), Q8TAQ2_C145 (SMARCC2 C145 (Q8TAQ2); 500 μm in-vitro ramos_231): 0.9 | isoTOP-ABPP ratio (reactivity profile), P40763_C259 (STAT3 C259 (P40763); 500 μm in-vitro ramos_231): 0.9 | isoTOP-ABPP ratio (reactivity profile), P68036_C86 (UBE2L3 C86 (P68036); 500 μm in-vitro ramos_231): 1.5 | isoTOP-ABPP ratio (reactivity profile), O14980_C34 (XPO1 C34 (O14980); 500 μm in-vitro ramos_231): 0.9

O=C(CCl)N(Cc1ccc(F)cc1)C12CC3CC(CC(C3)C1)C2 [compound 34]
isoTOP-ABPP reactivity ratio, P09211_C48 (GSTP1 C48 (P09211); in-vitro_ramos): 1.0 | isoTOP-ABPP reactivity ratio, P09211_C48 (GSTP1 C48 (P09211); in-vitro_ramos_231): 0.8 | isoTOP-ABPP reactivity ratio, P16455_C150 (MGMT C150 (P16455)): 1.4 | isoTOP-ABPP reactivity ratio, Q15084_C190 (PDIA6 C190 (Q15084); 500 μm, in-vitro_ramos_231): 0.9 | isoTOP-ABPP reactivity ratio, O14980_C34 (XPO1 C34 (O14980); in-vitro_ramos): 1.1 | isoTOP-ABPP reactivity ratio, O14980_C34 (XPO1 C34 (O14980); in-vitro_ramos_231): 0.8 | isoTOP-ABPP reactivity ratio, O14980_C528 (XPO1 C528 (O14980); 500 μm, in-vitro_ramos): 1.1

N#CC(=Cc1ccc(-c2ccccc2Cl)o1)C(N)=O [compound 42]
isoTOP-ABPP reactivity profile ratio, Q96GG9_C115 (DCUN1D1 C115 (Q96GG9)): 0.9 | isoTOP-ABPP reactivity profile ratio, P63244_C182 (GNB2L1 C182 (P63244); in-vitro_ramos): 0.8 | isoTOP-ABPP reactivity profile ratio, P09211_C48 (GSTP1 C48 (P09211); in-vitro_ramos): 0.7 | isoTOP-ABPP reactivity profile ratio, P16455_C150 (MGMT C150 (P16455)): 0.8 | isoTOP-ABPP reactivity profile ratio, Q8TAQ2_C145 (SMARCC2 C145 (Q8TAQ2); in-vitro_ramos): 1.0 | isoTOP-ABPP reactivity profile ratio, P68036_C86 (UBE2L3 C86 (P68036); in-vitro_ramos): 0.8 | isoTOP-ABPP reactivity profile ratio, O14980_C34 (XPO1 C34 (O14980); in-vitro_ramos): 0.9

CC1CCc2ccccc2N1C(=O)CCl (stereo not drawn) [compound 45]
isoTOP-ABPP reactivity profile ratio, P63244_C182 (GNB2L1 C182 (P63244); in-vitro_ramos_231): 0.9 | isoTOP-ABPP reactivity profile ratio, P09211_C48 (GSTP1 C48 (P09211); in-vitro_ramos_231): 19.7 | isoTOP-ABPP reactivity profile ratio, O14980_C34 (XPO1 C34 (O14980); in-vitro_ramos_231): 1.8

C=CC(=O)N(c1ccccc1)C1CCCCC1 [compound 46]
isoTOP-ABPP reactivity profile ratio, P63244_C182 (GNB2L1 C182 (P63244); in-vitro_ramos_231): 0.8 | isoTOP-ABPP reactivity profile ratio, P09211_C48 (GSTP1 C48 (P09211); in-vitro_ramos_231): 1.0 | isoTOP-ABPP reactivity profile ratio, Q15084_C190 (PDIA6 C190 (Q15084); 500 μm, in-vitro_ramos_231): 0.9 | isoTOP-ABPP reactivity profile ratio, Q8TAQ2_C145 (SMARCC2 C145 (Q8TAQ2); in-vitro_ramos_231): 1.0 | isoTOP-ABPP reactivity profile ratio, P40763_C259 (STAT3 C259 (P40763); 500 μm, in-vitro_ramos_231): 1.2 | isoTOP-ABPP reactivity profile ratio, P68036_C86 (UBE2L3 C86 (P68036); in-vitro_ramos_231): 1.2 | isoTOP-ABPP reactivity profile ratio, O14980_C34 (XPO1 C34 (O14980); in-vitro_ramos_231): 1.0 | isoTOP-ABPP reactivity profile ratio, O14980_C528 (XPO1 C528 (O14980); 500 μm, in-vitro_ramos_231): 0.7

O=C(CCl)N1CCc2cc(Br)ccc21 [compound 50]
isoTOP-ABPP reactivity profile ratio, P63244_C182 (GNB2L1 C182 (P63244); in-vitro_ramos_231): 0.8 | isoTOP-ABPP reactivity profile ratio, P09211_C48 (GSTP1 C48 (P09211); in-vitro_ramos_231): 2.3 | isoTOP-ABPP reactivity profile ratio, Q8TAQ2_C145 (SMARCC2 C145 (Q8TAQ2); in-vitro_ramos_231): 2.8 | isoTOP-ABPP reactivity profile ratio, O14980_C34 (XPO1 C34 (O14980); in-vitro_ramos_231): 1.2

O=C(CCl)Nc1cccc2ncccc12 [compound 51]
isoTOP-ABPP reactivity profile ratio, Q96GG9_C115 (DCUN1D1 C115 (Q96GG9)): 0.8 | isoTOP-ABPP reactivity profile ratio, P63244_C182 (GNB2L1 C182 (P63244); in-vitro_ramos): 0.9 | isoTOP-ABPP reactivity profile ratio, P63244_C182 (GNB2L1 C182 (P63244); in-vitro_ramos_231): 0.7 | isoTOP-ABPP reactivity profile ratio, P09211_C48 (GSTP1 C48 (P09211); in-vitro_ramos): 1.0 | isoTOP-ABPP reactivity profile ratio, P09211_C48 (GSTP1 C48 (P09211); in-vitro_ramos_231): 1.1 | isoTOP-ABPP reactivity profile ratio, Q15084_C190 (PDIA6 C190 (Q15084); 500 μm, in-vitro_ramos): 5.6 | isoTOP-ABPP reactivity profile ratio, Q8TAQ2_C145 (SMARCC2 C145 (Q8TAQ2); in-vitro_ramos): 1.1 | isoTOP-ABPP reactivity profile ratio, P68036_C86 (UBE2L3 C86 (P68036); in-vitro_ramos): 1.0 | isoTOP-ABPP reactivity profile ratio, O14980_C34 (XPO1 C34 (O14980); in-vitro_ramos): 1.0 | isoTOP-ABPP reactivity profile ratio, O14980_C34 (XPO1 C34 (O14980); in-vitro_ramos_231): 0.9 | isoTOP-ABPP reactivity profile ratio, O14980_C528 (XPO1 C528 (O14980); 500 μm, in-vitro_ramos): 0.9
